Test results: patent publication US20100234372A1, “SUBSTITUTED 2-MERCAPTOQUINOLINE-3-CARBOXAMIDES AS KCNQ2/3 MODULATORS” (GRUNENTHAL GMBH, priority 2009, published 2010)

Target: T1, KCNQ2/3 channels (Homo sapiens, UniProt O43525+O43526)
T1 construct: expressed in transfected cells; host or cells: CHO-K1 cells
Assay: Fluorescence assay using a voltage-sensitive dye (fluorimetry)
Type: cell-based
Settings: for EC50: CHO-K1 cells expressing KCNQ2/3 channels; for Emax at 1 µM: 50 μM retigabine = 100%, CHO-K1 cells expressing KCNQ2/3, read-out: Fluorimetry % efficacy at 1 μM (50 μM retigabine = 100%)
Experimental: […] CHO-K1 cells expressing KCNQ2/3 channels are cultivated adherently at 37° C., 5% CO2 and 95% humidity in cell culture bottles (e.g. 80 cm^2 TC flasks, Nunc) with DMEM-high glucose (Sigma Aldrich, D7777) including 10% FCS (PAN Biotech, e.g. 3302-P270521) or alternatively MEM Alpha Medium (1×, liquid, Invitrogen, #22571), 10% foetal calf serum (FCS) (Invitrogen, #10270-106, heat-inactivated) and the necessary selection antibiotics.
Before being seeded out for the measurements, the cells are washed with a 1×DPBS buffer without Ca^2+/Mg^2+ (e.g. Invitrogen, #14190-094) and detached from the bottom of the culture vessel by means of Accutase (PAA Laboratories, #L11-007) (incubation with Accutase for 15 min at 37° C.). The cell count then present is determined using a CASY™ cell counter (TCC model, Scharfe System) in order subsequently to apply 20,000 to 30,000 cells/well/100 μl of the described nutrient medium, depending on density optimisation for the individual cell line, to 96-well measuring plates of the Corning™ CeIIBIND™ type (flat clear-bottom black polystyrene microplates, #3340). Incubation is then carried out for one hour at room temperature, without gassing or adjusting the humidity, followed by incubation for 24 hours at 37° C., 5% CO2 and 95% humidity.
The voltage-sensitive fluorescent dye from the Membrane Potential Assay Kit (Red™ bulk format part R8123 for FLIPR, MDS Analytical Technologies™) is prepared by dissolving the contents of a vessel of Membrane Potential Assay Kit Red Component A in 200 ml of extracellular buffer (ES buffer, 120 mM NaCl, 1 mM KCl, 10 mM HEPES, 2 mM CaCl2, 2 mM MgCl2, 10 mM glucose; pH 7.4). After removal of the nutrient medium, the cells are washed with 200 μl of ES buffer, then covered with a layer of 100 μl of the dye solution prepared above and incubated for 45 min at room temperature with exclusion of light.
The fluorescence measurements are carried out with a BMG Labtech FLUOstar™, BMG Labtech NOVOstar™ or BMG Labtech POLARstar™ instrument (525 nm excitation, 560 nm emission, bottom-read mode). After incubation of the dye, 50 μl of the substances to be tested in the desired concentrations, or 50 μl of ES buffer for control purposes, are introduced into separate cavities of the measuring plate and incubated for 30 min at room temperature whilst being shielded from light. The fluorescence intensity of the dye is then measured for 5 min and the fluorescence value F1 of each well is thus determined at a given, constant time. 15 μl of a […] KCl solution ([…]) are then added to each well. The change in fluorescence is subsequently measured until all relevant measured values have been obtained (mainly 5-30 min). At a given time after KCl application, a fluorescence value F2 is determined, in this case at the time of the fluorescence peak.
For calculation, the fluorescence intensity F2 is compared with the fluorescence intensity F1, and the agonistic activity of the target compound on the potassium channel is determined therefrom. F2 and F1 are calculated as follows: […]
is determined by adding to the reaction batch only the buffer solution instead of the substance to be tested, determining the value F1K of the fluorescence intensity, adding the potassium ions as described above and measuring a value F2K of the fluorescence intensity. Then F2K and F1K are calculated as follows: […]
Calculations of EC50 values are carried out with the aid of Prism v4.0 software (GraphPad Software™).

Compound	EC50 [nM]	Emax at 1 µM [%]
O=C(NCC1CCCCC1)c1cc2ccccc2nc1SCCS(=O)(=O)c1ccccc1 [compound 19]	167	71
CC(C)(C)CCNC(=O)c1cc2ccccc2nc1SCCS(=O)(=O)c1ccccc1 [compound 23]		14
CCSc1nc2c(OC)cccc2c(C)c1C(=O)NCc1cccc(F)c1 [compound 138]	2240	91
CCSc1nc2cc(C(F)(F)F)ccc2c(C)c1C(=O)NCc1ccc(F)c(F)c1 [compound 31]	145	159
CCSc1nc2ccc(C(F)(F)F)cc2c(C)c1C(=O)NCc1ccc(F)cc1 [compound 104]		25
CCSc1nc2cc(C(F)(F)F)ccc2c(C)c1C(=O)NCc1ccccc1 [compound 74]	163	128
CCSc1nc2cc(C(F)(F)F)ccc2c(N(C)C)c1C(=O)NCc1cccc(F)c1 [compound 131, 4-Dimethylamino-2-ethylsulfanyl-N-[(3-fluorophenyl)-methyl]-7-(trifluoromethyl)-quinoline-3-carboxamide]	1820	104
CCSc1nc2ccc(C)cc2c(C)c1C(=O)NCc1cccc(F)c1 [compound 99]	623	90
CCSc1nc2cc(N(C)C)ccc2c(C)c1C(=O)NCc1ccc(F)cc1 [compound 133]		15
CCSc1nc2c(OC)cccc2c(C)c1C(=O)NCc1ccc(F)cc1 [compound 139]	1960	91
CCCCCSc1nc2cc(C(F)(F)F)ccc2c(C)c1C(=O)NCc1cccc(F)c1 [compound 50]	61	150
CCSc1nc2cc(C(F)(F)F)ccc2c(C)c1C(=O)NCC1CC2CCC1C2 (stereo not shown) [compound 73]		25
CCSc1nc2cc(C)ccc2c(C)c1C(=O)NCc1cccc(F)c1 [compound 107]	499	161
CCSc1nc2cc(C(F)(F)F)ccc2c(C)c1C(=O)NCc1ccco1 [compound 110]	89	183
Cc1ccc(SCCSc2nc3ccccc3cc2C(=O)NCc2cccs2)cc1 [compound 18]		72
CCSc1nc2cc(OC)ccc2c(C)c1C(=O)NCc1cccc(F)c1 [compound 97]	622	60
CCSc1nc2cc(C(F)(F)F)ccc2c(C)c1C(=O)NCc1cccc(O)c1 [compound 113]	3990	66
CCSc1nc2ccc(O)cc2c(C)c1C(=O)NCc1cccc(F)c1 [compound 128]		39
CCSc1nc2cc(C(F)(F)F)ccc2c(C)c1C(=O)NCc1ccc(C)s1 [compound 69]	858	123
CCSc1nc2cc(O)ccc2c(C)c1C(=O)NCc1cccc(F)c1 [compound 129]		12
O=C(NCc1cccs1)c1cc2ccccc2nc1SCCS(=O)(=O)c1ccc(F)cc1 [compound 16]	78	164
CCSc1nc2ccccc2c(C)c1C(=O)NCc1cccs1 [compound 91]	1210	50
CCSc1nc2c(C(F)(F)F)cccc2c(C)c1C(=O)NCc1cccc(F)c1 [compound 136]	227	164
CCSc1nc2cc(C(C)(C)C)ccc2c(C)c1C(=O)NCc1cccc(F)c1 [compound 95]	627	96
CCSc1nc2cc(OC)ccc2c(C)c1C(=O)NCc1ccc(F)cc1 [compound 98]	404	70
O=C(NCc1cccs1)c1cc2c(C(F)(F)F)cccc2nc1SCCS(=O)(=O)c1ccccc1 [compound 10]		9
CCSc1nc2cc(C(F)(F)F)ccc2c(C)c1C(=O)NCCC(C)(C)C [compound 25]		8

Compound	EC50 [nM]	Emax at 1 µM [%]
CCSc1nc2ccc(OC)cc2c(C)c1C(=O)NCc1cccc(F)c1 [compound 101]		17
CCSc1nc2cc(C(F)(F)F)ccc2c(C)c1C(=O)NCc1ccccn1 [compound 41]	1100	121
O=C(NCc1cccs1)c1cc2ccccc2nc1SCCCc1ccc(F)cc1 [compound 6]	1220	111
CCSc1nc2c(O)cccc2c(C)c1C(=O)NCc1cccc(F)c1 [compound 140]	1150	101
Cc1c(C(=O)NCc2cccc(F)c2)c(SC2CCCC2)nc2cc(C(F)(F)F)ccc12 [compound 48]	56	133
CCSc1nc2cc(C(F)(F)F)ccc2c(C)c1C(=O)NCCc1ccccc1 [compound 39]	473	48
CCSc1nc2ccc(F)cc2c(C)c1C(=O)NCc1cccc(F)c1 [compound 116]	598	147
CCCCSc1nc2cc(C(F)(F)F)ccc2c(C)c1C(=O)NCc1cccc(F)c1 [compound 49]	74	151
COC(=O)CCSc1nc2ccccc2cc1C(=O)NCc1cccs1 [compound 2, 3-{[3-[Oxo-(2-thienylmethylamino)methyl]-2-quinolyl]thio}propanoic acid methyl ester]		26
CCSc1nc2cc(F)ccc2c(C)c1C(=O)NCc1cccc(F)c1 [compound 105]	248	140
CCSc1nc2c(F)cccc2c(C)c1C(=O)NCc1cccc(F)c1 [compound 120]	1210	157
CCSc1nc2cc(C(F)(F)F)ccc2c(C)c1C(=O)NCc1cc(C)cs1 [compound 70]	1460	114
CCSc1nc2cc(C(F)(F)F)ccc2c(C)c1C(=O)NCc1cc(F)c(F)c(F)c1 [compound 33]	140	162
CCCSc1nc2cc(C(F)(F)F)ccc2c(C)c1C(=O)NCc1cccc(F)c1 [compound 46]	141	155
CCSc1nc2cc(C(F)(F)F)ccc2c(C)c1C(=O)NCc1nccs1 [compound 44]	587	169
Cc1c(C(=O)NCc2cccc(F)c2)c(SC(C)(C)C)nc2cc(C(F)(F)F)ccc12 [compound 93]	88	157
CCSc1nc2c(C(F)(F)F)cccc2c(C)c1C(=O)NCc1ccc(F)cc1 [compound 137]	225	166
CCSc1nc2cc(C(F)(F)F)ccc2c(C)c1C(=O)NCC(C)(C)C [compound 28]		47
CCSc1nc2cc(C(F)(F)F)ccc2c(C)c1C(=O)NCc1ccc(C(C)(C)C)cc1 [compound 36]	136	93
CCSc1nc2cc(C)ccc2c(C)c1C(=O)NCc1ccc(F)cc1 [compound 108]	509	149
CCSc1nc2c(F)cccc2c(C)c1C(=O)NCc1ccc(F)cc1 [compound 121]	334	90
CCSc1nc2cc(N3CCOCC3)ccc2c(C)c1C(=O)NCc1ccc(F)cc1 [compound 135]		6
CCSc1nc2cc(C(F)(F)F)ccc2c(C)c1C(=O)NCCCc1ccccc1 [compound 40]	194	152
Cc1c(C(=O)NCc2cccc(F)c2)c(SC(C)C)nc2cc(C(F)(F)F)ccc12 [compound 47]	73	152
CCSc1nc2cc(C(F)(F)F)ccc2c(C)c1C(=O)NCc1ccc(C(F)(F)F)cc1 [compound 55]	149	167
O=C(NCc1cccs1)c1cc2ccc(C(F)(F)F)cc2nc1SCCS(=O)(=O)c1ccccc1 [compound 9]		26
CCSc1nc2ccc(F)cc2c(C)c1C(=O)NCc1ccc(F)cc1 [compound 117]	222	87
